Data reported in patent publication US9029389B2 (Institut Pasteur Korea, priority 2011, dated 2015).

Target: T1, Human 5-lipoxygenase (Homo sapiens, UniProt P09917)
T1 construct: purchased Cayman 60402; host or cells: insect cells
T1 sequence (P09917 1-674): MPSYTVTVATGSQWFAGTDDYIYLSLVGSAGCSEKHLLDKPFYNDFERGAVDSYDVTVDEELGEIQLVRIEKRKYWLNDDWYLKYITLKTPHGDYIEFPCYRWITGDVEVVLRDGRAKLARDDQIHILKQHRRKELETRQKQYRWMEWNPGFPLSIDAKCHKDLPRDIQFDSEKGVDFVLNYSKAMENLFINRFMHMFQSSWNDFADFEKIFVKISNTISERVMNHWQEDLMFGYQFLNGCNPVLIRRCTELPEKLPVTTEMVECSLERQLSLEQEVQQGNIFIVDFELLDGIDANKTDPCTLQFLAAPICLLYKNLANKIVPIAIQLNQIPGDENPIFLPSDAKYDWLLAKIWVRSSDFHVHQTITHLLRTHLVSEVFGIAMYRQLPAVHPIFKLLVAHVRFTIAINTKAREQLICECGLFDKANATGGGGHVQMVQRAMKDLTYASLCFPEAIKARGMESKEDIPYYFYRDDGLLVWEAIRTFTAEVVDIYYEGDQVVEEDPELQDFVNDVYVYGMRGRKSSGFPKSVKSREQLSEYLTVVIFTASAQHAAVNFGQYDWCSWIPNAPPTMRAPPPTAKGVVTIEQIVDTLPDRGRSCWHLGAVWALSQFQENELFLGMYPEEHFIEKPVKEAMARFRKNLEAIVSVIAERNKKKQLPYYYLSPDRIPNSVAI
Assay: Activity of compounds against 5-LO enzyme (LTB4 measurement and/or fluorescence method)
Assay type: biochemical
Conditions: for inhibition at 10 µM: 5-LO, single concentration of 10 uM in duplicate; for IC50: 6 or 11 point dose response in duplicate
How it was run: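 Two read-outs: LTB4 measured by EIA and/or LC/MS/MS with LTB4-d4 standard after 15 min RT compound preincubation with insect-cell 5-LO and a 5 min 37 °C reaction on 3 uM arachidonic acid (0.1 mM ATP, pH 7.4). The room-temperature fluorescence format used 20 uM H2DCFDA, 100 uM ATP, 3 uM arachidonic acid, 5 min; IC50 from 6/11-point curves.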

Row | inhibition at 10 µM [%] | IC50 [µM] | SMILES
1 | 40 to 69 | – | CCc1nc2ccc(Cl)cn2c1C(=O)NCc1ccc(-c2ccc(C#N)cc2C)cc1 [compound 104, 6-Chloro-N-((4′-cyano-2′-methylbiphenyl-4-yl)methyl)-2-ethylimidazo[1,2-a]pyridine-3-carboxamide]
2 | < 40 | – | CCc1nc2ccc(Cl)cn2c1C(=O)NCc1ccc(N2CCN(C)CC2)cc1 [compound 105, 6-Chloro-2-ethyl-N-(4-(4-methylpiperazin-1-yl)benzyl)imidazo[1,2-a]pyridine-3-carboxamide]
3 | 40 to 69 | – | CCc1nc2cc(Cl)ccn2c1C(=O)NCc1ccc(-c2ccccc2C#N)cc1 [compound 106, 7-Chloro-N-((2′-cyanobiphenyl-4-yl)methyl)-2-ethylimidazo[1,2-a]pyridine-3-carboxamide]
4 | 40 to 69 | – | CCc1nc2cc(Cl)ccn2c1C(=O)NCc1ccc(OC(F)(F)F)cc1 [compound 107, 7-Chloro-2-ethyl-N-(4-(trifluoromethoxy)benzyl)imidazo[1,2-a]pyridine-3-carboxamide]
5 | < 40 | – | CCc1nc2cc(Cl)ccn2c1C(=O)NCc1ccc(N2CCN(C)CC2)cc1 [compound 108, 7-Chloro-2-ethyl-N-(4-(4-methylpiperazin-1-yl)benzyl)imidazo[1,2-a]pyridine-3-carboxamide]
6 | 40 to 69 | – | CCc1nc2cc(Cl)ccn2c1C(=O)NCc1ccc(-c2ccc(C#N)cc2C)cc1 [compound 109, 7-Chloro-N-((4′-cyano-2′-methylbiphenyl-4-yl)methyl)-2-ethylimidazo[1,2-a]pyridine-3-carboxamide]
7 | > 69 | > 20 | CCCCCNc1ccc(CNC(=O)c2c(CC)nc3cc(Cl)ccn23)cc1 [compound 110, 7-Chloro-2-ethyl-N-(4-(pentylamino)benzyl)imidazo[1,2-a]pyridine-3-carboxamide]
8 | < 40 | – | CCc1nc2cc(Cl)ccn2c1C(=O)NCc1ccc(-c2ccc(C(F)(F)F)cc2)cc1 [compound 111, 7-Chloro-2-ethyl-N-((4′-(trifluoromethyl)biphenyl-4-yl)methyl)imidazo[1,2-a]pyridine-3-carboxamide]
9 | 40 to 69 | – | CCc1nc2cc(Cl)ccn2c1C(=O)NCc1ccc(-c2ccc(OC(F)(F)F)cc2)cc1 [compound 112, 7-Chloro-2-ethyl-N-((4′-(trifluoromethoxy)biphenyl-4-yl)methyl)imidazo[1,2-a]pyridine-3-carboxamide]
10 | 40 to 69 | – | CCc1nc2cc(Cl)ccn2c1C(=O)NCc1ccc(-c2ccc(OC)cc2)cc1 [compound 113, 7-Chloro-2-ethyl-N-((4′-methoxybiphenyl-4-yl)methyl)imidazo[1,2-a]pyridine-3-carboxamide]
11 | 40 to 69 | – | CCc1nc2cc(Cl)ccn2c1C(=O)NCc1ccc(-c2ccc(C(C)(C)C)cc2)cc1 [compound 114, N-((4′-tert-Butylbiphenyl-4-yl)methyl)-7-chloro-2-ethylimidazo[1,2-a]pyridine-3-carboxamide]
12 | 40 to 69 | – | CCc1nc2cc(Cl)ccn2c1NC(=O)c1ccc(-c2ccccc2)cc1 [compound 115, N-(7-Chloro-2-ethylimidazo[1,2-a]pyridin-3-yl)biphenyl-4-carboxamide]
13 | 40 to 69 | – | CCc1nc2cc(Cl)ccn2c1NC(=O)Cc1ccc(-c2ccccc2)cc1 [compound 116, 2-(Biphenyl-4-yl)-N-(7-chloro-2-ethylimidazo[1,2-a]pyridin-3-yl)acetamide]
14 | < 40 | – | CCc1nc2cc(Cl)ccn2c1C(=O)NCc1ccc(-n2cccc2)cc1 [compound 117, N-(4-(1H-Pyrrol-1-yl)benzyl)-7-chloro-2-ethylimidazo[1,2-a]pyridine-3-carboxamide]
15 | < 40 | – | CCc1nc2cc(OC)ccn2c1C(=O)NCc1ccc(OC(F)(F)F)cc1 [compound 118, 2-Ethyl-7-methoxy-N-(4-(trifluoromethoxy)benzyl)imidazo[1,2-a]pyridine-3-carboxamide]
16 | 40 to 69 | – | CCc1nc2cc(Cl)ccn2c1C(=O)NCc1ccc(-c2ccc(OC)cn2)cc1 [compound 119, 7-Chloro-2-ethyl-N-(4-(5-methoxypyridin-2-yl)benzyl)imidazo[1,2-a]pyridine-3-carboxamide]

Row | inhibition at 10 µM [%] | IC50 [µM] | SMILES
17 | 40 to 69 | – | CCc1nc2ccc(F)cn2c1C(=O)NCc1ccc(OC(F)(F)F)cc1 [compound 120, 2-Ethyl-6-fluoro-N-(4-(trifluoromethoxy)benzyl)imidazo[1,2-a]pyridine-3-carboxamide]
18 | 40 to 69 | – | CCc1nc2ccc(C(F)(F)F)cn2c1C(=O)NCc1ccc(OC(F)(F)F)cc1 [compound 121, 2-Ethyl-N-(4-(trifluoromethoxy)benzyl)-6-(trifluoromethyl)imidazo[1,2-a]pyridine-3-carboxamide]
19 | 40 to 69 | – | CCc1nc2ccc(Cl)cn2c1C(=O)NCc1ccc(N2CCC(Oc3ccc(OC(F)(F)F)cc3)CC2)cc1 [compound 122, 6-Chloro-2-ethyl-N-(4-(4-(4-(trifluoromethoxy)phenoxy)piperidin-1-yl)benzyl)imidazo[1,2-a]pyridine-3-carboxamide]
20 | > 69 | > 20 | CCc1nc2cc(Cl)ccn2c1C(=O)NCc1ccc(N2CCC(Oc3ccc(OC(F)(F)F)cc3)CC2)cc1 [compound 123, 7-Chloro-2-ethyl-N-(4-(4-(4-(trifluoromethoxy)phenoxy)piperidin-1-yl)benzyl)imidazo[1,2-a]pyridine-3-carboxamide]
21 | > 69 | 1 to 20 | CCc1nc2ccc(C(F)(F)F)cn2c1C(=O)NCc1ccc(N2CCC(Oc3ccc(OC(F)(F)F)cc3)CC2)cc1 [compound 124, 2-Ethyl-N-(4-(4-(4-(trifluoromethoxy)phenoxy)piperidin-1-yl)benzyl)-6-(trifluoromethyl)imidazo[1,2-a]pyridine-3-carboxamide]
22 | 40 to 69 | – | CCc1nc2cc(Cl)ccn2c1C(=O)NCc1ccc(Oc2ccc(F)cc2)cc1 [compound 129, 7-Chloro-2-ethyl-N-(4-(4-fluorophenoxy)benzyl)imidazo[1,2-a]pyridine-3-carboxamide]
23 | > 69 | 1 to 20 | CCc1nc2ccc(Cl)cn2c1C(=O)NCc1ccc(N2CCN(Cc3ccc(F)cc3)CC2)cc1 [compound 130, 6-Chloro-2-ethyl-N-(4-(4-(4-fluorobenzyl)piperazin-1-yl)benzyl)imidazo[1,2-a]pyridine-3-carboxamide]
24 | 40 to 69 | – | CCc1nc2ccc(Cl)cn2c1C(=O)NCc1ccc(Oc2ccc(OC(F)(F)F)cc2)cc1 [compound 131, 6-Chloro-2-ethyl-N-(4-(4-(trifluoromethoxy)phenoxy)benzyl)imidazo[1,2-a]pyridine-3-carboxamide]
25 | 40 to 69 | – | CCc1nc2ccc(Cl)cn2c1C(=O)NCc1ccn(-c2ccc(OC(F)(F)F)cc2)n1 [compound 132, 6-Chloro-2-ethyl-N-((1-(4-(trifluoromethoxy)phenyl)-1H-pyrazol-3-yl)methyl)imidazo[1,2-a]pyridine-3-carboxamide]
26 | 40 to 69 | – | CCc1nc2cc(Cl)ccn2c1C(=O)NCc1ccn(-c2ccc(OC(F)(F)F)cc2)n1 [compound 133, 7-Chloro-2-ethyl-N-((1-(4-(trifluoromethoxy)phenyl)-1H-pyrazol-3-yl)methyl)imidazo[1,2-a]pyridine-3-carboxamide]
27 | 40 to 69 | – | CCc1nc2ccc(Cl)cn2c1CNc1ccc(OC(F)(F)F)cc1 [compound 144, N-((6-Chloro-2-ethylimidazo[1,2-a]pyridin-3-yl)methyl)-4-(trifluoromethoxy)aniline]
28 | 40 to 69 | – | CCc1nc2ccc(Cl)cn2c1C(=O)NCC1CCCc2c1cnn2-c1ccc(OC(F)(F)F)cc1 (stereo not drawn) [compound 147, 6-Chloro-2-ethyl-N-((1-(4-(trifluoromethoxy)phenyl)-4,5,6,7-tetrahydro-1H-indazol-4-yl)methyl)imidazo[1,2-a]pyridine-3-carboxamide]
29 | 40 to 69 | 1 to 20 | CCc1nc2ccc(Cl)cn2c1C(=O)NCc1ccc(N2CCN(c3ccc(F)cc3)CC2)cc1 [compound 148, 6-Chloro-2-ethyl-N-(4-(4-(4-fluorophenyl)piperazin-1-yl)benzyl)imidazo[1,2-a]pyridine-3-carboxamide]
30 | 40 to 69 | – | CCc1nc2ccc(Cl)cn2c1C(=O)NCC1CCCc2c1cnn2-c1ccc(F)cc1 (stereo not drawn) [compound 149, 6-Chloro-2-ethyl-N-((1-(4-fluorophenyl)-4,5,6,7-tetrahydro-1H-indazol-4-yl)methyl)imidazo[1,2-a]pyridine-3-carboxamide]
31 | 40 to 69 | – | CCc1nc2cc([N+](=O)[O-])ccn2c1C(=O)NCc1ccc(OC(F)(F)F)cc1 [compound 150, 2-Ethyl-7-nitro-N-(4-(trifluoromethoxy)benzyl)imidazo[1,2-a]pyridine-3-carboxamide]
